Results reported in patent US20250345383A1, “INTRANASAL ADMINISTRATION OF POLYSULFIDE” (The General Hospital Corporation, priority 2022, published 2025).

Assays:
mice subjected to SCI = experiment: Mouse model of spinal cord ischemia (SCI): delayed paraplegia, hindlimb motor function by Basso mouse scale (BMS); type: in vivo
Source text: Adult C57BL/6J mice (12-18 weeks old) of both sexes were purchased from Jackson Laboratory (Bar Harbor, ME, USA). Both male and female mice were used in experiments to investigate the neuroprotective effect of GSSSG on motor function after SCI. […] All mice were housed in a temperature and humidity-controlled room in the animal center with a 12-hour light/dark cycle, and were provided with food and water ab libitum. To permit access by mice that were recovering from surgery, additional food pellets were inserted into hydrated gel placed on the bedding. A randomized paired design was used to minimize the variability between each treatment group. Mice were paired based on weight, age, delivery dates, and when possible, holding cages. After the pairing, mice were randomly assigned to different treatments.
The surgical procedures to produce delayed paraplegia in mice were performed as previously described^6 (FIG. 2A). Mice were anesthetized with 5% isoflurane in 100% O2 and tracheally intubated with a 20-gauge catheter (Angiocath; Becton Dickinson, Franklin Lakes, NJ, USA). […] The paravertebral muscle temperature was measured using a T-type implantable thermocouple probe (IT-18) and a T-type pod (ADInstruments, Colorado Springs, CO, USA). […] A median sternotomy extended from the apex of the manubrium to the second rib. The aortic arch was gently isolated between the left common carotid artery (LCCA) and the left subclavian artery (LSA), avoiding the vagus nerve and the left recurrent laryngeal nerve. […] After ischemia, the clips were removed in reverse order. Incisions were closed in layers and mechanical ventilation was discontinued. After stable spontaneous respiration was confirmed, mice were extubated.
The previously described surgical procedures^6 were modified as follows. The respiratory rate during the procedure was increased to 230 breaths/minute, because hyperventilation promotes the occurrence of delayed paraplegia caused by spinal cord ischemia^33. A laser Doppler perfusion monitor (moorVMS-LDF1; Moor Instruments, Millwey, UK) was used to monitor the femoral artery blood flow^28,29. […] To improve the accuracy of surgical procedures, a microscope (Leica MZ95; Leica Microsystems, Buffalo Grove, IL, USA) was used to isolate the aortic arch and place the clips.
Study drugs were administered intranasally using a single-channel pipettor. Mice were anesthetized with 3% isoflurane using a non-rebreathing circuit with a mouse nose cone (VetEquip, Inc., Livermore, CA, USA). While the drugs were administered, the nose cone was removed and mice were allowed to breathe air. Approximately 6 μL of each drug was administered into the mouse's nostrils and the mouse inhaled the droplets during inspiration. […]

primary cortical neurons = experiment: Relative sulfane sulfur levels in primary cortical neurons (SSip-1 DA); type: cell-based, mouse; conditions: incubation at 10 μM for 20 minutes; relative to untreated neurons
Procedure: Primary cortical neurons were isolated from the cerebral cortices of C57BL/6J mice of both sexes at embryonic day 15, as previously described 39. Primary cortical neurons were maintained at 37° C. in a humidified tissue culture chamber with 5% CO2 and cells were used on day 11 after harvest.
Primary cortical neurons or SH-SY5Y cells, a human neuroblastoma cell line (American Type Culture Collection, Manassas, VA, USA), were incubated with SSip-1 DA […] at 37° C. for 20 minutes in the dark. Cells were washed with pre-warmed HBSS containing calcium and magnesium (Thermo Fisher Scientific, Waltham, MA, USA) and then cells were incubated with GSSSG, sodium trisulfide (Na2S3; Dojindo Molecular Technologies, Inc., Rockville, MD, USA), PTN-SSS, or vehicle alone for 20 minutes at 37° C. in the dark. Fluorescence intensities were measured using a microplate reader.

SH-SY5Y cells = experiment: Cell viability of SH-SY5Y cells incubated with MPP+ (crystal violet assay); type: cell-based, human; conditions: MPP+ 5 mM, 24 h; 10 μM each
Procedure: (§1) Cell viability assays was performed to examine cell viabilities of SH-SY5Y cells or murine primary cortical neurons 24 h after the addition of MPP^+ (5 mM for SH-SY5Y, 50 μM for primary cortical neurons) with vehicle (PBS), Na2S (Sigma-Aldrich), Na2S3 (Dojindo Molecular Technologies, Inc), GSSSG (Glutathione trisulfide, Kyowa Hakko Bio Co., Ltd., Tokyo, Japan), LA (α-Lipoic acid, Sigma-Aldrich) or LASSS (α-Lipoic acid trisulfide, Kyowa Hakko Bio Co., Ltd., Tokyo, Japan). Cell viability was measured using the crystal violet assay.

[1] = test system: murine primary cortical neurons; experiment: Cell viability of murine primary cortical neurons incubated with MPP+ (crystal violet assay); type: cell-based, mouse; conditions: MPP+ 50 μM, 24 hours
Procedure: as §1

MPTP-treated mice = experiment: MPTP-induced Parkinson's disease model in mice (tyrosine hydroxylase immunoblot); type: in vivo, mouse; conditions: GSSSG 50 mg/kg intranasal on day 0 and every 12 hours days 1-6; harvested 7 days after MPTP
Procedure: Intermittent H2S Inhalation—Sulfide Pre-Conditioning (SPC) We previously reported that breathing H2S at 80 ppm markedly increases plasma and brain levels of H2S and thiosulfate, an oxidative product of H2S.^50,51 Male C57BL6/J mice breathed air alone and air mixed with 80 ppm H2S (Airgas Inc., Radnor, PA) for 4 h each day for 5 consecutive days in custom-made plastic chambers. The H2S breathing session was performed from 8 AM until 12 PM from Day 1 through Day 5 as previously described^51 (FIG. 1). H2S concentration, as well as FiO2, was continuously measured using a portable gas monitor (VENTIS MX4 Multi-Gas Monitor, Industrial Scientific Corporation, Oakdale. PA).
Male C57BL6/J and CD-1 mice received four intraperitoneal injections of MPTP (20 mg/kg) or saline every 2 h for a total of four doses of MPTP (total, 80 mg/kg) or equivalent amount of saline, as previously described 3. […] Then, tyrosine hydroxylase protein levels were detected by immunoblotting.
To determine the effects of polysulfide on the loss of tyrosine hydroxylase in the substantia nigra and striatum in mice treated with MPTP, we administered GSSSG (50 mg/kg) or saline via intranasal route immediately after the first and the third injection of MPTP on Day 0. […] Then, tyrosine hydroxylase protein levels were detected by immunoblotting.

## N[C@@H](CCC(=O)N[C@@H](CSSSC[C@H](NC(=O)CC[C@H](N)C(=O)O)C(=O)NCC(=O)O)C(=O)NCC(=O)O)C(=O)O [GSSSG, glutathione trisulfide]
Mice subjected to SCI; GSSSG vs GSSG comparison, n=6 per group, intranasal GSSSG 50 mg/kg, GSSG 53 mg/kg
  male mice rescued from delayed paraplegia: 83%
Mice subjected to SCI; male mice, n=11 per group, intranasal at 0, 8, 23, 32 hours after surgery, GSSSG 50 mg/kg, GSH 45.2 mg/kg
  mice in which development of delayed paraplegia was prevented: 73%
Primary cortical neurons
  levels of intracellular sulfane sulfur in primary cortical neurons: increased levels of intracellular sulfane sulfur
SH-SY5Y cells
  viability of MPP+-treated SH-SY5Y cells: increased the viability
[1]
  protection of murine primary cortical neurons from the effects of MPP+ treatment: protected
MPTP-treated mice
  tyrosine hydroxylase in the nigrostriatal region: prevented the MPTP-induced decrease in tyrosine hydroxylase
